# Laboratory results as given in paper PMC7154863, “The First Case of Glyphosate Resistance in Johnsongrass (Sorghum halepense (L.) Pers.) in Europe” (Plants, 2020).
# Tested on: T1, 5-enolpyruvylshikimate-3-phosphate synthase (EPSPS)
# T1 construct: native enzyme in leaf extract, not purified to homogeneity; partial EPSPS2 cDNA (543-bp fragment) without Pro106 or Thr102 substitution
# Experiment: EnzCheck phosphate release assay, leaf extract, log-logistic fit
# Assay type: biochemical, Sorghum halepense
# Settings: range of estimates over seven populations without significant differences: 2.6 (GR6), 3.4 (GR1); the others only in the figure; glyphosate 0-1000 µM; 360 nm, 10 min; read-out: I50
compound,measurement,value
O=C(O)CNCP(=O)(O)O [glyphosate],IC50,2600 to 3400 nM
